Assay results published in patent US6852888B2, “Carboxylic acid derivatives” (Syngenta Crop Protection, Inc., priority 1998, dated 2005).
Values belong to the compound of their own block, whether it stands above or below them.

Legend:
[1] = tested on: Aphis craccivora; assay: Action against Aphis craccivora; assay type: in vivo; conditions: 400 ppm spray on infested pea seedlings, 20° C., evaluated 3 and 6 days later, read-out: percentage reduction in population (% activity)
Experimental: Action against Aphis craccivora
Pea seedlings are infested with Aphis craccivora, subsequently sprayed with a spray mixture comprising 400 ppm of the test compound and incubated at 20° C. The evaluation is carried out 3 and 6 days later. The percentage reduction in population (% activity) is determined by comparing the number of dead aphids on the treated plants with that on the untreated plants.

[2] = tested on: Myzus persicae; assay: Systemic action against Myzus persicae; assay type: in vivo; conditions: pea seedlings with roots in spray mixture of 400 ppm, 20° C., evaluated 3 and 6 days later
Experimental: Systemic Action against Myzus persicae
Pea seedlings are infested with Myzus persicae, and then placed with their roots in a spray mixture comprising 400 ppm of the test compound and incubated at 20° C. The evaluation is carried out 3 and 6 days later. The percentage reduction in population (% activity) is determined by comparing the number of dead aphids on the treated plants with that on the untreated plants.

[3] = tested on: Tetranychus urticae; assay: Action against Tetranychus urticae; assay type: in vivo; conditions: 400 ppm spray on young bean plants, mixed population, 6 days at 25° C.
Experimental: Action against Tetranychus urticae
Young bean plants are populated with a mixed population of Tetranychus urticae and sprayed one day later with an aqueous emulsion spray mixture comprising 400 ppm of the test compound. The plants are then incubated for 6 days at 25° C. and subsequently evaluated. The percentage reduction in population (% activity) is determined by comparing the number of dead eggs, larvae and adults on the treated plants with that on the untreated plants.

melting point: 59 to 60 °C
Compound: Cc1cc(OC(F)(F)C(F)Cl)ccc1NC(=O)CCCC=C(F)F (stereo not shown) [Compound 1.1, 6,6-Difluorohex-5-enoic acid [4-(2-chloro-1,1,2-trifluoroethoxy)-2-methylphenyl]amide]
inhibition at 400 ppm [1]: > 80%

Compound: O=C(CCCC=C(F)F)Nc1ccc(OC(F)(F)C(F)F)cc1 [Compound 1.3]
percentage reduction in population (% activity) [2]: more than 80%

Compound: O=C(CCCC=C(F)F)Nc1cccc(OC(F)(F)C(F)F)c1 [Compound 1.17]
percentage reduction in population (% activity) [3]: more than 80%
